Consider 4 compounds from patent publication US8586768B2, “Design, synthesis and functional characterization of rottlerin analogs” (priority 2009, dated 2013).

In assay [1] the test system is N27 cells. Put plainly: MPP+-induced DNA fragmentation in N27 cells. The class given is cell-based, rat. The following applies: co-treated with 3 μM. An excerpt: To determine whether PK analogs are neuroprotective against MPP+-induced increases in caspase-3 and DNA fragmentation, their effects on MPP+-induced increases in caspase-3 activity and DNA fragmentation, markers of apoptotic cell death, were examined. All three analogs PK101-103 protected N27 cells from MPP+-induced caspase-3 activation and DNA fragmentation. […] (**p<0.01 and ***p<0.001, compared to vehicle control; #p<0.05, ##p<0.01, compared to MPP+ treatment).

In assay [2] the test system is C57 black mice. Put plainly: MPTP mouse model, tyrosine hydroxylase (TH) immunostaining of substantia nigra. The class given is in vivo. To be noted: MPTP 4 x 18 mg/kg i.p.; 10 mg/kg oral gavage, 7 days. The method, then: PK analogs attenuate dopaminergic neuronal cell loss induced by MPTP toxicity in mouse substantia nigra. Lead PK analogs were examined to determine whether they could protect against MPTP-induced dopaminergic neuronal loss in C57 black mice. Mice received 4 doses of MPTP at 18 mg/kg i.p. at 2 hr interval. Oral administration of PK analogs (10 mg/kg body wt, oral gavage) was continued for 7 days. Mice were sacrificed after 7 days of MPTP injections. (n=5).
Abbreviataions: M: MPTP; SNpc: substantia nigra pars compacta; SNl: substantia nigra lateralis; SNr: substantia nigra reticularis; VTA: Ventral tegmental area.

Assay [3] concerns the target T1, PKCδ (Homo sapiens, UniProt Q05655). Kind of assay: In vitro 32P phosphorylation kinase assay with histone substrate. To be noted: for % activity change 3 μM: 3 μM compound, negative = inhibition. Format: biochemical. The method, then: Since PK analogs are directed against PKCδ, it was first determined whether the analogs would inhibit PKCδ enzyme activity in kinase assays. The ability of lead PK analogs to inhibit purified human recombinant PKCδ enzyme activity by 32P phosphorylation kinase assay with histone as the substrate was measured. The in vitro kinase assays were performed with human recombinant PKCδ in the presence or absence of 0.3-10 μM lead PK analogs in the presence histone substrate, [^32P]-ATP and phospholipids. The extent of histone phosphorylation was determined after separation in SDS-PAGE and by phosphoimaging. IC50 was obtained using sigmoidal dose-response curve and non-linear regressional analysis using Graphpad Prism software.
In vitro kinase assays were performed with human recombinant PKCδ in the presence or absence of 0.3-10 μM lead PK analogs in the presence histone substrate, [^32P]-ATP and phospholipids. The extent of histone phosphorylation was determined after separation in SDS-PAGE and by phosphoimaging.

Assay [4] can be described thus: Activity of simple rottlerin analogs compared with rottlerin (test not named). The method, then: Design and Synthesis of Novel Rottlerin Analogs. Since Rottlerin has proven to be a difficult target to make synthetically, analogs have been developed and tested in an attempt to localize the region of activity and improve that activity. Initially, simple analogs of Rottlerin itself, obtained from CalBioChem (La Jolla, Calif., Cat #557370), were prepared and analyzed. Two compounds gave important results, one representing a simplified methylene linkage present in the parent compound (PK103), and the other (PK203) came from a simple bromination of natural Rottlerin.

Assay [5] concerns mouse primary mesencephalic neuronal cultures. Put plainly: 3H-dopamine uptake assay after MPP+ exposure. The class given is cell-based. The following applies: 10 μM MPP+, 3 μM compound, 48 h. The procedure: Lead PK analogs protect against MPP^+-induced loss of TH+ neurons in primary mesencephalic cultures. To determine if lead PK analogs protect against degeneration of nigral dopaminergic neurons resulting from MPP+ neurotoxicity, mouse primary mesencephalic neuronal cultures (prepared from E16-18-day-old mice embryos) were exposed to 10 μM MPP^+ in the presence or absence of 3 μM of lead PK analogs, PK103, PK202, PK302 and parent compound rottlerin for 48 h, and then assessed the viability of dopaminergic neurons using the ^3H-dopamine uptake assay. (***p<0.005 (vehicle versus MPTP. ##p<0.01 (PK analogs versus MPTP)). Mazindol, a dopamine reuptake inhibitor, was used as a positive control for the assay.

Assay [6] deals with T1, PKCδ. To be noted: background statement; cited from earlier work.
Setting [7] is: 0.3-10 μM, histone substrate, [32P]-ATP, phospholipids, read-out: IC50.

Like-named read-outs stand apart in the source and are kept apart here.

Broadly, the IC50 is the concentration at which inhibition is half-maximal.

T1 sequence (Q05655 whole entry): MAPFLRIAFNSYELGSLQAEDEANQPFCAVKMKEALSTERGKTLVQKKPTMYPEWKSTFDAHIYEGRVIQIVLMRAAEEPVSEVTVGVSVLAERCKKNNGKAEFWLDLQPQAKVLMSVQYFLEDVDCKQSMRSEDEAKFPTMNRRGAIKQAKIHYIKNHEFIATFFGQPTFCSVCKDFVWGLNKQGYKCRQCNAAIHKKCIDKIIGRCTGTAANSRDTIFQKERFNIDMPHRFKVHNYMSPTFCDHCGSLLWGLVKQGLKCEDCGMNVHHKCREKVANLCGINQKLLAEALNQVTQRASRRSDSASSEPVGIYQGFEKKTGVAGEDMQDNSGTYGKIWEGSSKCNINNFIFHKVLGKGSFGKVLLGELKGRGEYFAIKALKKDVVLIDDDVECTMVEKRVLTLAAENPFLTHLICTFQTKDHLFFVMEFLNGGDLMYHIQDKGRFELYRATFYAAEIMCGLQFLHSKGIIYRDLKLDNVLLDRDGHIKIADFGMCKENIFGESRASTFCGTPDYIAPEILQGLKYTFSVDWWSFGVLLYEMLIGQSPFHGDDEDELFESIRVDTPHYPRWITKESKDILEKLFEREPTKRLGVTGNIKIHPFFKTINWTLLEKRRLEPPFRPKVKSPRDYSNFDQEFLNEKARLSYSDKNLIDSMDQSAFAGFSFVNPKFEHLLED

Consider `Oc1cc(O)c(Cc2c(O)cc(O)cc2O)c(O)c1` [PK103], for which the “blockage of MPP+-induced DNA fragmentation” value in assay [1] was “significant blockage”. The “protection against MPTP-induced nigral dopaminergic degeneration (TH immunostaining)” value (from here on “protection … (TH immunostaining)”) in assay [2] is recorded as “significant protection”. In addition, the “% activity change 3 μM” value in assay [3] is −65%. Moreover, the IC50 in assay [3] (setting [7]) was found to be 5.98 µM. Further, the “activity compared with Rottlerin” value in assay [4] is given as “less activity than Rottlerin”.
Regarding `CC(=O)c1c(O)c(C)c(O)c(Cc2c(O)c3c(c4c2OC(c2ccccc2)CC4=O)OC(C)(C)C=C3)c1O` (stereo not drawn) [PK202], in assay [2], the “protection … (TH immunostaining)” value is listed as “significant protection”. Besides, the “% activity change 3 μM” value in assay [3] is on record as −67%. Moreover, the IC50 in assay [3] (setting [7]) turned out to be 0.97 µM.
As for `CC1(C)C=Cc2c(O)cc(O)c(C(=O)/C=C/c3ccccc3)c2O1` [PK302], in assay [2], the “protection … (TH immunostaining)” value is recorded as “significant protection”. The “% activity change 3 μM” value in assay [3] is on record as −73%. Also, the IC50 in assay [3] (setting [7]) worked out at 1.99 µM.
For `CC(=O)c1c(O)c(C)c(O)c(Cc2c(O)c3c(c(C(=O)/C=C/c4ccccc4)c2O)OC(C)(C)C=C3)c1O` [Rottlerin, (E)-1-[6-[(3-acetyl-2,4,6-trihydroxy-5-methylphenyl)methyl]-5,7-dihydroxy-2,2-dimethylchromen-8-yl]-3-phenylprop-2-en-1-one], the “protection against MPP+-induced loss of dopaminergic neurons (dopamine uptake)” value in assay [5] is “protected”. Moreover, the IC50 in assay [3] was 13.6 µM; in assay [6] it was 3 to 6 µM. The “% activity change 3 μM” value in assay [3] is −40%.
